Laboratory results as given in patent publication US9662347B2, “Method for inhibiting the induction of cell death by inhibiting the synthesis or secretion of age-albumin in cells of the mononuclear phagocyte system” (Gachon University of Industry-Academic Cooperation …, priority 2010, dated 2017).

Experiments:
[1] = system: α-synuclein, TNF-α and AGE-albumin in human microglial cells; format: cell-based; settings: for expression level of α-synuclein or TNF-α in human microglial cells: PCR and immunoblotting; for expression level of AGE-albumin: irrespective of rotenone treatment
Experimental: Human microglial cells were cultured at 37° C. in DMEM (Gibco, 10% FBS (Gibco), 0.1% gentamicin (Gibco), a high concentration of glucose) at 37° C. in a 5% CO2 incubator. Then, the microglial cells were exposed to rotenone (Sigma, 1 nM), a causative agent of Parkinson's disease, for 10 days or to 6-hydroxydopamine (6-OHDA) for 24 hrs to prepare a cell model of Parkinson's disease.
α-Synuclein or TNF-α is present at a high level in the brain tissue of Parkinson's disease patients.

[2] = system: rotenone-mediated neuronal cell death; experiment: Rotenone mouse model, number of neuronal cells in brain tissues (cresyl violet staining); format: in vivo; settings: rotenone mice; for level of cell death in mouse brain tissues: substance injected into brain, one week and one month, compared to PBS
Experimental: CBL57/bL6 mice, each weighing 20-25 g, were used as experimental animals. The mice were maintained on a 12-h light-dark cycle, allowed to have access to food and water ad libitum, and acclimated for at least 1 week prior to usage. All animal experiments were approved by the Institute Animal Care and Use Committee, and were conducted humanely.
(§2) The animal models of Parkinson's disease were anaesthetized with ketamine (0.75 mg/kg body weight) and rompun (0.2 mg/kg body weight) prior to surgical procedures. For in vivo treatments, phosphate buffered saline (PBS) and sRAGE (10 ng/μL) were dissolved at a concentration of 1 mM in sterile water and kept at 4° C. until use. The head was fixed on a stereotaxic instrument before a midline incision of the scalp skin was made. The skull was pierced with a biological electric drill at the bregma (posteriorly, 0.3 mm; laterally, 2 mm) and the needle (gauge 26) on a 10-μL Hamilton syringe was lowered vertically until it reached the target area (depth, 2.5 mm). Three microliters of sRAGE were injected slowly at the rate of 1 μL per minute with an automatic microinjector. Thereafter, the syringe was removed slowly and surgical wounds were sutured with wound clips followed by topical treatment with antibiotics. For control, PBS was injected into the entorhinal cortex of normal mice.
Most mice were bred for one week and one month after injection of sRAGE. During the breeding, oral administration of rotenone still continued. Afterwards, all mice were re-anaesthetized in the same manner, and perfused transcardially with 100˜200 mL of heparinized saline at 18° C. followed by 400 mL of 4% paraformaldehyde-lysine periodate in 0.1 M sodium phosphate buffer (pH, 7.4). The brains were removed, placed in the same fixative for 4 hrs at 4° C., and then transferred into ice-cold 0.1 M phosphate-buffered saline (PBS) containing 20% sucrose. […]
The relative levels of neurons in mouse brain tissues were evaluated by cresyl violet staining after PBS, rotenone, or rotenone/sRAGE administration for one week and one month before microscopy.

[3] = system: AGE-albumin, RAGE, and Bax in mouse brain tissues; experiment: Rotenone mouse model, fluoroimmunostaining of AGE-albumin, RAGE and Bax in brain tissues; format: in vivo; settings: versus rotenone alone; one week and one month
Experimental: as §2
Most mice were bred for one week and one month after injection of sRAGE. During the breeding, oral administration of rotenone still continued. Afterwards, all mice were re-anaesthetized in the same manner, and perfused transcardially with 100˜200 mL of heparinized saline at 18° C. followed by 400 mL of 4% paraformaldehyde-lysine periodate in 0.1 M sodium phosphate buffer (pH, 7.4). […]

[4] = system: AGE-albumin in human microglial cells (HMO6); experiment: Synthesis and secretion of AGE-albumin in human microglial cells (co-immunoprecipitation, ELISA, immunoblot); format: cell-based; settings: for amount / expression level of AGE-albumin (immunoblot): 0˜1000 μM H2O2, ascorbic acid irrespective of Aβ1-42 treatment
Experimental: (§1) For in vitro studies, the immortalized human microglial cell line HMO6 was used. HMO6 cells were grown in Dulbecco's modified Eagle's medium (DMEM, Gibco) containing a high glucose concentration, supplemented with 10% heat-inactivated fetal bovine serum (FBS, Gibco) and […] gentamycin (Sigma-Aldrich). These cells were maintained at 37° C. under 5% CO2. HMO6 cells were exposed to Aβ1-42 (Sigma-Aldrich) at concentrations from 0 to 400 nM. HMO6 cells were then harvested 6 hrs after Aβ1-42 treatment for further analysis.
Whole human microglial cell lysates prepared before and after Aβ 1-42 treatment were subjected to immunoblotting analysis. In this regard, whole cell lysates from human microglial cells before and after treatment with 0˜400 nM Aβ 1-42 were prepared with a RIPA (radioimmunoprecipitation assay) buffer containing 1 M Tris (pH 7.5), 5 M NaCl, 10% NP-40, 10% deoxycholate and a protease inhibitor cocktail (Calbiochem). All cell lysates (1 mg protein) were incubated overnight at 4° C. with 5 mg of anti-AGE (Abcam)-conjugated sepharose beads in […] of PBS. The sepharose beads were precipitated by centrifugation at 14,000 rpm for 5 min, and washed three times with 1 mL of washing buffer containing 50 mM Tris-Cl and 500 mM NaCl (pH 8.0). The IgG-bound antigen-antibody complex was resolved on a 4-12% polyacrylamide gel (Invitrogen), followed by immunoblot analysis with the respective antibodies (1:1000, Abcam).
After removal of already synthesized albumin by use of an anti-albumin antibody, intracellular and extracellular (secreted into culture media) levels of AGE-albumin were measured using ELISA. For this, human microglial cells were treated with 0-400 nM Aβ1-42, after which the culture media (0.1 mg protein) were harvested. Separately, the cells were lyzed to prepare cell lysates (0.5 mg protein). […] Following the addition of HRP-conjugated anti-mouse secondary antibody (1:1000, Vector Laboratories) to each well, color was developed with TMB (3,3′,5,5′-tetramethylbenzidine), and reaction was stopped with an equal volume of 2 M H2SO4. Absorbance at 450 nm was read on an ELISA plate reader (VERSA Max, Molecular Devices).
Aβ1-42 is known to accumulate over a long period of time by oxidative stress.

[5] = system: AGE-albumin in human microglial cells; experiment: AGE-albumin in human microglial cell model of stroke (oxygen and glucose deprivation); format: cell-based; settings: for amount / expression level of AGE-albumin in stroke model cells (immunoblot): 0˜1000 μM H2O2, ascorbic acid irrespective of hypoxia and glucose deprivation; for expression level of AGE-albumin in stroke model cells: 0, 50, 200, 500, 2000 ng/mL, hypoxic and glucose-deprived
Experimental: Human microglial cells were cultured at 37° C. in DMEM (Gibco, 10% FBS (Gibco), 0.1% gentamicin (Gibco), a high concentration of glucose) at 37° C. in a 5% CO2 incubator. Then, the microglial cells were exposed to glucose-free DMEM for 1 hr within a hypoxic (5% CO2 and 95% N2) chamber (Billups-Rothenberg, Del Mar, Calif.) to prepare a cell model of stroke.
Human microglial cell models of stroke were treated with HMGB1, which is known to secrete most abundantly upon stroke to excite microglial cells. Expression levels of AGE-albumin in the human microglial cell model of stroke were quantitated at various concentrations (0, 50, 200, 500, 2000 ng/mL) of HMGB1 using immunohistochemistry (IHC), ELISA, and immunoblotting.
A Human microglial cell model of stroke was exposed to various concentrations (0, 50, 200, 500, 2000 ng/mL) of the HMGB1 inhibitor glycyrrhizic acid, and quantitatively analyzed for AGE-albumin using ELISA and immunoblotting.

[6] = system: AGE-albumin in human microglial cells and rat brain tissues; experiment: Distribution and density of AGE-albumin after Aβ1-42 treatment (immunostaining, confocal microscopy); format: cell-based
Experimental: as §1
Cells were grown on Lab-Tek II slide chambers (Nunc), rinsed with PBS, fixed in methanol for 15 min, and rinsed again with PBS. […] After washing the secondary antibodies with PBS three times at regular intervals of 10 min, coverslips were mounted onto glass slides using the Vectashield mounting medium (Vector Laboratories), and examined under a laser confocal fluorescence microscope (LSM-710, Carl Zeiss).
Immunohistochemistry was conducted on murine brain tissues from normal or Alzheimer's disease rats, and human brain tissues from normal adults and Alzheimer's disease individuals [S. M. Ahn et al., PLoS ONE 3, e2829 (2008)]. […] After washing the secondary antibodies three times with PBS, coverslips were mounted onto glass slides using the Vectashield mounting medium (Vector Laboratories), and observed under a laser confocal fluorescence microscope (LSM-710, Carl Zeiss). […]

[7] = system: AGE-albumin in mouse blood monocytes; experiment: AGE-albumin in mouse blood monocytes (immunostaining); format: cell-based; settings: compared to non-treated cells

NCCc1cc(O)c(O)cc1O [6-hydroxydopamine]
expression level of α-synuclein or TNF-α in human microglial cells [1]: increased

CC(=O)OCC1=C(C(=O)O)N2C(=O)[C@@H](NC(=O)Cc3cccs3)[C@H]2SC1 [C-21, Cephalothin sodium]
level of cell death in mouse brain tissues [2]: significantly reduced level of cell death | AGE, albumin, Iba1, AGE-albumin, RAGE, and Bax expression / positive cells in mouse brain tissues [3]: reduced

C=C1[C@@H](C)[C@H]2[C@H](Cc3ccccc3)NC(=O)[C@]23[C@H](OC(C)=O)/C=C/[C@@](C)(O)C(=O)[C@@H](C)C/C=C/[C@H]3[C@@H]1O [cytochalasin D]
expression level of AGE-albumin [1]: drastically reduced

C=C(C)[C@H]1Cc2c(ccc3c2O[C@@H]2COc4cc(OC)c(OC)cc4[C@@H]2C3=O)O1 [rotenone]
expression level of AGE-albumin in both cell lysate and cell culture medium ([1]; 1 nM rotenone): increased | expression level of α-synuclein or TNF-α in human microglial cells [1]: increased

OO [hydrogen peroxide]
amount / expression level of AGE-albumin (immunoblot) [4]: increased in a concentration-dependent manner | amount / expression level of AGE-albumin in stroke model cells (immunoblot) [5]: increased in a concentration-dependent manner | amounts of both α-synuclein and AGE-albumin ([1]; sequentially exposed to rotenone and H2O2 0˜1000 μM): increased in a concentration-dependent manner

Aβ1-42: amyloid beta 1-42 (Sigma-Aldrich), activator of microglial cells
expression level of AGE-albumin (immunostaining) ([6]; human microglial cells and rat brain tissue (cerebral cortex) after exposure to Aβ1-42): remarkable elevation | densities of AGE-albumin ([6]; microglial cells and rat brain tissues after versus before Aβ1-42 treatment): remarkably higher | expression level of AGE-albumin in human microglial cells (co-immunoprecipitation) ([4]; 0˜400 nM Aβ1-42): increased with an increase in the concentration | level of AGE-albumin in human microglial cell lysates (ELISA) ([4]; compared to non-treated lysates): significant increase | expression level of AGE-albumin in mouse blood monocytes [7]: higher expression level

CC1(C)[C@@H](O[C@H]2O[C@H](C(=O)O)[C@@H](O)[C@H](O)[C@H]2O[C@@H]2O[C@H](C(=O)O)[C@@H](O)[C@H](O)[C@H]2O)CC[C@]2(C)[C@H]3C(=O)C=C4[C@@H]5C[C@@](C)(C(=O)O)CC[C@]5(C)CC[C@@]4(C)[C@]3(C)CC[C@@H]12 [glycyrrhizic acid]
expression level of AGE-albumin in stroke model cells [5]: significantly decreased with an increase in the concentration

N[C@@H](C(=O)N[C@@H]1C(=O)N2C(C(=O)O)=C(Cl)CS[C@H]12)c1ccccc1 [C-20, Cefaclor]
level of cell death in mouse brain tissues [2]: significantly reduced level of cell death | number of neurons in the injected region versus the non-injected region ([2]; predominant recovery in the substantia nigra): higher number of neurons | AGE, albumin, Iba1, AGE-albumin, RAGE, and Bax expression / positive cells in mouse brain tissues [3]: reduced

O=C1O[C@H]([C@@H](O)CO)C(O)=C1O [ascorbic acid]
amount / expression level of AGE-albumin (immunoblot) [4]: drastically reduced | amount / expression level of AGE-albumin in stroke model cells (immunoblot) [5]: drastically reduced | expression level of AGE-albumin [1]: drastically reduced

B1: HMGB1: high motility group protein B1, excites microglial cells upon stroke (protein, UniProt P09429 1-215, looked up)
High mobility group protein B1: MGKGDPKKPRGKMSSYAFFVQTCREEHKKKHPDASVNFSEFSKKCSERWKTMSAKEKGKFEDMAKADKARYEREMKTYIPPKGETKKKFKDPNAPKRPPSAFFLFCSEYRPKIKGEHPGLSIGDVAKKLGEMWNNTAADDKQPYEKKAAKLKEKYEKDIAAYRAKGKPDAAKKGVVKAEKSKKKKEEEEDEEDEEDEEEEEDEEDEDEEEDDDDE
expression level of AGE-albumin in stroke model cells [5]: significantly increased with an increase in the concentration
